Test results published in PMC3510435 (Febs Letters, 2012).

Columns and labels:
[1] = target: T1, APH(3′)-IIIa (aminoglycoside phosphotransferase(3′)-IIIa) (Enterococcus faecalis, UniProt P0A3Y5); assay: quench flow and coupled-assay stopped flow, ADP production; assay type: biochemical; details: 100 μM KanA, 200 μM ATP, 0.2 μM enzyme, 25 °C, pH 7.5; KanA also binds the E·ADP complex (uncompetitive-type abortive complex)
T1 construct: gene aphA; recombinant, N-terminal 6His-tag kept (pET15b), E. coli BL21(DE3)
T1 sequence (P0A3Y5 whole entry): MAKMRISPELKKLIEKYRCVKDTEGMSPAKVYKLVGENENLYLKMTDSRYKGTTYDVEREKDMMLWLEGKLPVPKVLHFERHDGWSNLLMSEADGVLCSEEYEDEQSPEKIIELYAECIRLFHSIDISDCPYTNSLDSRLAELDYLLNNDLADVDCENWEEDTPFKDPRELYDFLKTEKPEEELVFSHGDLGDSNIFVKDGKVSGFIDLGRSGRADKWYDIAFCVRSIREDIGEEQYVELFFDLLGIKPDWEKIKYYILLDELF

[2] = target: T1, APH(3′)-IIIa (aminoglycoside phosphotransferase(3′)-IIIa); assay: rapid quench flow, total ADP by HPLC; assay type: biochemical; details: 20 μM ADP added together with 20 μM ATP, 5 μM enzyme, 100 μM KanA, 25 °C, pH 7.5; competes with ATP for E·KanA; also the reaction product

| SMILES | quench flow and coupled-assay stopped flow, ADP production [1] | % reduction of kss and Aburst [2] |
| --- | --- | --- |
| NC[C@H]1O[C@H](O[C@H]2[C@H](O)[C@@H](O[C@H]3O[C@H](CO)[C@@H](O)[C@H](N)[C@H]3O)[C@H](N)C[C@@H]2N)[C@H](O)[C@@H](O)[C@@H]1O [kanamycin A] | The initial kss determined by the two methods were identical |  |
| Nc1ncnc2c1ncn2[C@@H]1O[C@H](COP(=O)(O)OP(=O)(O)O)[C@@H](O)[C@H]1O [ADP] |  | ~ 50% |
